Source: paper PMC4455059 (Nature Communications, 2015)
Read-outs that look alike come from different tables or passages of the source. Non-standard residues stand in square brackets, D forms with d. Residues, ends and D or L forms follow the SMILES beside them. Phe(3-I) = N[C@@H](Cc1cccc(I)c1)C(=O)O; Phe(4-I) = N[C@@H](Cc1ccc(I)cc1)C(=O)O

Legend:
[1] = cc_pd bond
ανβ3 integrin receptors = ανβ3 integrin receptors (Homo sapiens, UniProt P05106+P06756); experiment: Inhibition of cellular adhesion (integrin antagonism); assay type: cell-based
ανβ3 integrin receptors, sequence (P06756 31-889 limits assumed): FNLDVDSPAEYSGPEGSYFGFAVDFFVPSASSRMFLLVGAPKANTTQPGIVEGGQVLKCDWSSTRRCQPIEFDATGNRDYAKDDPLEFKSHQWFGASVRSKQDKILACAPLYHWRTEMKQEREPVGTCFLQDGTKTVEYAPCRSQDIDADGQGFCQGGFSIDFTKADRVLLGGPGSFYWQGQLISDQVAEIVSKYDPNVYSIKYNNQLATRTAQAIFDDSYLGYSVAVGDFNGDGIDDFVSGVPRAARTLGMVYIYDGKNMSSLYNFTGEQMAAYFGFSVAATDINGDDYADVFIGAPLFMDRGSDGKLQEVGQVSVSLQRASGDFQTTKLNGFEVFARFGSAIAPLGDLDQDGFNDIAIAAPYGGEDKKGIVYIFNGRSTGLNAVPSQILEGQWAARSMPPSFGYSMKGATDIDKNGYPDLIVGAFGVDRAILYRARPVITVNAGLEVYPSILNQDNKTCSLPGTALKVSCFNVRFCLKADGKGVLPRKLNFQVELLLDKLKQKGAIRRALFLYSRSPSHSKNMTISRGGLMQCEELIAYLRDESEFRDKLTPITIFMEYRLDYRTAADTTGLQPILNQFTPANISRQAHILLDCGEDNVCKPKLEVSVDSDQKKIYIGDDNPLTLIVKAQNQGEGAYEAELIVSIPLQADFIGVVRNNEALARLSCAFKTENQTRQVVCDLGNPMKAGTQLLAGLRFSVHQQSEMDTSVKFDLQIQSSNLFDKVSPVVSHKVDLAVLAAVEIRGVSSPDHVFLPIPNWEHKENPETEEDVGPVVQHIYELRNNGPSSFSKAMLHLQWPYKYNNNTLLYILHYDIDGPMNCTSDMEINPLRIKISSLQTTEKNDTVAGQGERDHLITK
ανβ3 integrin receptors, sequence (P06756 891-1048 partner limits assumed): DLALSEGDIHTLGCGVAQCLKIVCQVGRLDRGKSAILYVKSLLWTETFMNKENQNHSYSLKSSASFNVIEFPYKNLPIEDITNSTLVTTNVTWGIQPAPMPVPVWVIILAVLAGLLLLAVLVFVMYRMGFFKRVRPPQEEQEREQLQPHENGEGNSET
ανβ3 integrin receptors, sequence (P05106 27-788): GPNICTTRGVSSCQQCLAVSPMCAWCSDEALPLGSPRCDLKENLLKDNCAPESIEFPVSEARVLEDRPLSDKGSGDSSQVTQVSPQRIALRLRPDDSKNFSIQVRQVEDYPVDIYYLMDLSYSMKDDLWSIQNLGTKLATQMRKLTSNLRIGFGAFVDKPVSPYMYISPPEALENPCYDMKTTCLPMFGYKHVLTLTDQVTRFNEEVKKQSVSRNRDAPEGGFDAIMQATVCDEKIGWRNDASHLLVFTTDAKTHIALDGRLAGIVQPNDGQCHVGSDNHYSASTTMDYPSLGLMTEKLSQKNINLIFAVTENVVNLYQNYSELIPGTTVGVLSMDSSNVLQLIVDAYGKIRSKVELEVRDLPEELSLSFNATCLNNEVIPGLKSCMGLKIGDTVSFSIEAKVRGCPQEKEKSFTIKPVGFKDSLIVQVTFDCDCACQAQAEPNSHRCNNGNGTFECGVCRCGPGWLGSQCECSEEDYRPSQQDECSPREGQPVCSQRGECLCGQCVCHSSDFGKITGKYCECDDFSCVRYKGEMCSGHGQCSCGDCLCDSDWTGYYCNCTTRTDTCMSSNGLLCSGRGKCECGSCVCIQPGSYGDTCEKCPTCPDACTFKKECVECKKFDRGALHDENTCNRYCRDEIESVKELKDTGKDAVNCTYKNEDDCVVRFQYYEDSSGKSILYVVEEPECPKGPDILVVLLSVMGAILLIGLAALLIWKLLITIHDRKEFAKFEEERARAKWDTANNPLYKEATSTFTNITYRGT
Source text: However, it has to be considered that even linear analogues display a much lower potency (10–10^3 times, depending on the targeted integrin) than the parent cilengitide.

chymotrypsin = experiment: Proteolytic degradation assay (chymotrypsin-based protocol); assay type: in vitro ADME; settings: for half-life: chymotrypsin-based protocol (protocol of ref 51), HPLC-MS read-out, Fig. 4b, read-out: t1/2, proteolytic degradation; for protection towards enzymatic degradation (in words): chymotrypsin, after 5–6 h, HPLC-MS profiles
Method: Figure 4 Bioactive stapled peptides, biochemical and cellular studies. (a) Structure of stapled peptides 2l (valorphin analogue) and 2m (baratin analogue). (b) Proteolytic degradation assay of stapled peptides 2g and 2h and their linear precursors 1g and 1h. (c) Structure of labelled-stapled peptide 2j Bodipy (left) and the corresponding confocal microscopy image of SH-SY5Y cells treated with compound 2j Bodipy (750 nM). Scale bar, 25 μm (right).
Next, we determined the proteolytic stability of a couple of meaningful stapled peptides, in comparison with their respective linear counterparts. We followed a chymotrypsin-based protocol, previously used to evaluate stapled peptides.

[2] = test system: several cancer cell lines; experiment: Preliminary biological studies against several cancer cell lines; assay type: cell-based
Source text: Nevertheless, the protocol seems general and offers new possibilities for peptide-based conjugation.

α-chymotrypsin = experiment: chymotrypsin-based protocol; settings: up to 6 h
SH-SY5Y cells [3] = experiment: Cell penetration and localization (FACS flow cytometry and confocal microscopy); assay type: cell-based; settings: 750 nM
Source text: (§1) Finally, we studied the controlled labelling of the stapled peptides. The goal was to selectively attach a fluorophore to the C-terminal amino acid to trace cellular permeabilization and localization. Thus, we linked a Bodipy residue to cyclopeptide 2j through an amino spacer (the novel Bodipy construct was designed and prepared for this purpose, see Supplementary Fig. 16 and Supplementary Methods), to get the desired labelled-stapled peptide 2j Bodipy (Fig. 4c) in a convenient manner. […] The cells treated in this manner were analysed using confocal microscopy.
(§2) Supplementary Figure 17 Cytotoxicity of 1j-Bodipy and 2j-Bodipy peptides using the MTT assay. The toxicity assay was carried out as described in the literature.13 SH-SY5Y cells were transferred to 96-well plates (100 μL medium/well) at a density of 5000 cell/well. After 24 h, cells in triplicate were treated either with 1j-Bodipy or 2j-Bodipy (750 nM and 50 µM) or TRITON 0.2% as positive control for 24 h. Values are represented as means ± SD from three independent experiments.
(§3) Supplementary Figure 18 FACS analysis of SH-SY5Y cells upon incubation with 1j-Bodipy and 2j-Bodipy. For FACS analysis, SH-SY5Y cells were seeded on a plastic 24 well plate and cultured for 24 h. […] Fluorescence sorting was performed with a Gallios Beckman Coulter flow […]

SH-SY5Y cells [4] = experiment: Cytotoxicity, MTT assay; assay type: cell-based; settings: 750 nM, 24 h incubation, triplicate, three independent experiments
Source text: as §1, §2, §3

CC(=O)N[C@@H](C)C(=O)N[C@H]1Cc2cccc(c2)-c2[nH]c3ccccc3c2C[C@@H](C(=O)N[C@@H](C)C(=O)O)NC(=O)[C@H](C)NC(=O)[C@H](C)NC1=O [Ac-Ala-Phe(3-I)-Ala-Ala-Trp-Ala-OH]
ring closure, conversion ([1]; from Ac-Ala-Phe(3-I)-Ala-Ala-Trp-Ala-OH, 17-membered ring, Pd(OAc)2 5 mol%/AgBF4/2-NO2BzOH, MW 15 min, DMF:PBS 1:1, 80.0 °C): 100%

CC(=O)N[C@@H](C)C(=O)N[C@H]1Cc2cccc(c2)-c2[nH]c3ccccc3c2C[C@@H](C(=O)N[C@@H](C)C(=O)O)NC(=O)[C@H](C)NC1=O [Ac-Ala-Phe(3-I)-Ala-Trp-Ala-OH]
ring closure, conversion ([1]; from Ac-Ala-Phe(3-I)-Ala-Trp-Ala-OH, 14-membered ring, Pd(OAc)2 5 mol%/AgBF4/2-NO2BzOH, MW 15 min, DMF:PBS 1:1, 80.0 °C): 38%

CC(=O)N[C@@H](C)C(=O)N[C@H]1Cc2ccccc2-c2[nH]c3ccccc3c2C[C@@H](C(=O)N[C@@H](C)C(=O)O)NC1=O [Ac-Ala-Phe(2-I)-Trp-Ala-OH?]
ring closure, conversion ([1]; from Ac-Ala-Phe(2-I)-Trp-Ala-OH?, 10-membered ring, Pd(OAc)2/AgBF4/TFA?): 0%

CC(=O)N[C@@H](C)C(=O)N[C@H]1Cc2ccc(O)c(c2)-c2[nH]c3ccccc3c2C[C@@H](C(=O)N[C@@H](C)C(=O)O)NC(=O)[C@H](C)NC(=O)[C@H](C)NC1=O [Ac-Ala-Tyr(3-I)-Ala-Ala-Trp-Ala-OH]
ring closure, conversion ([1]; from Ac-Ala-Tyr(3-I)-Ala-Ala-Trp-Ala-OH, 17-membered ring, Pd(OAc)2 5 mol%/AgBF4/2-NO2BzOH, MW 15 min, DMF:PBS 1:1, 80.0 °C): 100%

C[C@H](N)C(=O)N[C@H]1Cc2cccc(c2)-c2[nH]c3ccccc3c2C[C@@H](C(=O)N[C@@H](C)C(=O)O)NC(=O)[C@H](C)NC(=O)[C@H](CO)NC1=O [H-Ala-Phe(3-I)-Ser-Ala-Trp-Ala-OH]
ring closure, conversion ([1]; from H-Ala-Phe(3-I)-Ser-Ala-Trp-Ala-OH, 17-membered ring, Pd(OAc)2 5 mol%/AgBF4/TFA, MW 20 min, DMF, 54.0 mM, 90.0 °C): 39%

CC(=O)N[C@@H](C)C(=O)N[C@H]1Cc2cccc(c2)-c2[nH]c3ccccc3c2C[C@@H](C(=O)N[C@@H](C)C(=O)O)NC1=O [Ac-Ala-Phe(3-I)-Trp-Ala-OH?]
ring closure, conversion ([1]; from Ac-Ala-Phe(3-I)-Trp-Ala-OH?, 11-membered ring, Pd(OAc)2/AgBF4/TFA?): 60%

CC(=O)N[C@@H](Cc1cccc(I)c1)C(=O)N[C@@H](CCCNC(=N)N)C(=O)NCC(=O)N[C@@H](CC(=O)O)C(=O)N[C@@H](Cc1c[nH]c2ccccc12)C(N)=O [1h, Ac-m-I-Phe-Arg-Gly-Asp-Trp-NH2] (Ac-[Phe(3-I)]RGDW-NH2)
EC50 (ανβ3 integrin receptors; preliminary studies, ανβ3 integrin antagonism, read-out: EC50, capacity to inhibit cellular adhesion): 26 µM | half-life (chymotrypsin): 52.5 min | protection towards enzymatic degradation (in words) (chymotrypsin): completely disappeared

CC(=O)N[C@H]1Cc2cccc(c2)-c2[nH]c3ccccc3c2C[C@@H](C(N)=O)NC(=O)[C@H](CCCNC(=N)N)NC(=O)CNC(=O)[C@H](CC(N)=O)NC1=O [Ac-Phe(3-I)-Asn-Gly-Arg-Trp-NH2]
ring closure, conversion ([1]; from Ac-Phe(3-I)-Asn-Gly-Arg-Trp-NH2, 20-membered ring, Pd(OAc)2 5 mol%/AgBF4/TFA, MW 20 min, DMF, 49.0 mM, 90.0 °C): 77%

CC(C)C[C@@H]1NC(=O)[C@H](Cc2ccc(I)cc2)NC(=O)[C@H](CC(C)C)NC(=O)[C@H](C(C)C)NC(=O)[C@H](CC(C)C)NC1=O [compound 4] (cyclo(LLVL[Phe(4-I)]))
IC50 [2]: < 10 µM

Ac-[Phe(3-I)]NGRW-NH2
cleaved bond (α-chymotrypsin): m-I-Phe-Asn

CC(=O)N[C@@H](C)C(=O)N[C@H]1Cc2cccc(c2)-c2[nH]c3ccccc3c2C[C@@H](C(=O)N[C@@H](C)C(=O)NCCNC(=O)CCC(=O)Nc2ccc(C3=C4C(C)=CC(C)=[N+]4[B-](F)(F)n4c(C)cc(C)c43)cc2)NC(=O)[C@H](C(C)C)NC1=O [2j Bodipy]
cellular localization / penetration (in words) (SH-SY5Y cells [3]; incubation 30 min at 37 °C, confocal microscopy, fluorescence): localized both in the membrane and in the cytoplasmatic region | cell staining in flow cytometry (FACS) (in words) (SH-SY5Y cells [3]; incubation for 30 min, 37 °C, 5% CO2, fluorescence): brightly stained | cytotoxicity (in words) (SH-SY5Y cells [4]): low cytotoxicity

CC(=O)N[C@@H](C)C(=O)N[C@H]1Cc2ccc(O)c(c2)-c2[nH]c3ccccc3c2C[C@@H](C(=O)N[C@@H](C)C(=O)O)NC(=O)[C@H](C)NC1=O [Ac-Ala-Tyr(3-I)-Ala-Trp-Ala-OH]
ring closure, conversion ([1]; from Ac-Ala-Tyr(3-I)-Ala-Trp-Ala-OH, 14-membered ring, Pd(OAc)2 5 mol%/AgBF4/2-NO2BzOH, MW 15 min, DMF:PBS 1:1, 80.0 °C): 100%

C[C@@H]1NC(=O)[C@H](CCCNC(=N)N)NC(=O)CNC(=O)[C@H](CC(N)=O)NC(=O)[C@H](C)NC(=O)[C@H](Cc2c[nH]c3ccccc23)NC1=O [compound 3] (cyclo(ANGRAW))
activity against several cancer cell lines (in words) [2]: only the cyclopeptide 4 showed activity

CC(=O)N[C@H]1Cc2cccc(c2)-c2[nH]c3ccccc3c2C[C@@H](C(N)=O)NC(=O)[C@H](CC(=O)O)NC(=O)CNC(=O)[C@H](CCCNC(=N)N)NC1=O [Ac-Phe(3-I)-Arg-Gly-Asp-Trp-NH2]
ring closure, conversion ([1]; from Ac-Phe(3-I)-Arg-Gly-Asp-Trp-NH2, 20-membered ring, Pd(OAc)2 5 mol%/AgBF4/TFA, MW 20 min, DMF, 49.0 mM, 90.0 °C): 70%

CC(=O)N[C@@H](C)C(=O)N[C@H]1Cc2ccc(O)c(c2)-c2[nH]c3ccccc3c2C[C@@H](C(=O)N[C@@H](C)C(=O)O)NC(=O)[C@H](C)NC(=O)[C@H](C)NC(=O)[C@H](C)NC1=O [Ac-Ala-Tyr(3-I)-Ala-Ala-Ala-Trp-Ala-OH]
ring closure, conversion ([1]; from Ac-Ala-Tyr(3-I)-Ala-Ala-Ala-Trp-Ala-OH, 20-membered ring, Pd(OAc)2 5 mol%/AgBF4/2-NO2BzOH, MW 15 min, DMF:PBS 1:1, 80.0 °C): 100%

CC(=O)N[C@@H](Cc1cccc(I)c1)C(=O)N[C@@H](CC(N)=O)C(=O)NCC(=O)N[C@@H](CCCNC(=N)N)C(=O)N[C@@H](Cc1c[nH]c2ccccc12)C(N)=O [1g, Ac-m-I-Phe-Asn-Gly-Arg-Trp-NH2] (Ac-[Phe(3-I)]NGRW-NH2)
half-life (chymotrypsin): 19.8 min | protection towards enzymatic degradation (in words) (chymotrypsin): completely disappeared

CC(=O)N[C@H]1Cc2cccc(c2)-c2[nH]c3ccccc3c2C[C@@H](C(N)=O)NC(=O)[C@H](CC(=O)O)NC(=O)CNC(=O)[C@H](CCCNC(=N)N)NC1=O [2h]
selectivity ανβ3 versus ανβ5 integrin receptors (in words) (ανβ3 integrin receptors; preliminary cellular adhesion studies): act selectively as antagonists for the ανβ3 in front of ανβ5 integrin receptors | protection towards enzymatic degradation (in words) (chymotrypsin): almost total protection

Ac-[Phe(3-I)]RGDW-NH2
cleaved bond (α-chymotrypsin): m-I-Phe-Arg

CC(=O)N[C@@H](C)C(=O)N[C@H]1Cc2cccc(c2)-c2[nH]c3ccccc3c2C[C@@H](C(=O)N[C@@H](C)C(=O)O)NC(=O)[C@H](C)NC(=O)[C@H](C)NC(=O)[C@H](C)NC1=O [Ac-Ala-Phe(3-I)-Ala-Ala-Ala-Trp-Ala-OH]
ring closure, conversion ([1]; from Ac-Ala-Phe(3-I)-Ala-Ala-Ala-Trp-Ala-OH, 20-membered ring, Pd(OAc)2 5 mol%/AgBF4/2-NO2BzOH, MW 15 min, DMF:PBS 1:1, 80.0 °C): 100%

CC(=O)N[C@@H](C)C(=O)N[C@H]1Cc2cccc(c2)-c2[nH]c3ccccc3c2C[C@@H](C(=O)N[C@@H](C)C(=O)O)NC(=O)[C@H](C(C)C)NC1=O [Ac-Ala-Phe(3-I)-Val-Trp-Ala-OH]
ring closure, conversion ([1]; from Ac-Ala-Phe(3-I)-Val-Trp-Ala-OH, 14-membered ring, Pd(OAc)2 5 mol%/AgBF4/TFA, MW 20 min, DMF, 55.0 mM, 90.0 °C): 71%

CC(=O)N[C@@H](C)C(=O)N[C@H]1Cc2ccc(cc2)-c2[nH]c3ccccc3c2C[C@@H](C(=O)N[C@@H](C)C(=O)O)NC(=O)[C@@H](NC(=O)[C@H](C)NC(C)=O)Cc2ccc(cc2)-c2[nH]c3ccccc3c2C[C@@H](C(=O)N[C@@H](C)C(=O)O)NC1=O [Ac-Ala-Phe(4-I)-Trp-Ala-OH]
ring closure, conversion ([1]; from Ac-Ala-Phe(4-I)-Trp-Ala-OH, 24-membered ring, Pd(OAc)2 5 mol%/AgBF4/TFA, MW 20 min, DMF, 63.0 mM, 90.0 °C): 60%
